Literature values as cited in US20070254835A1, “COMPOSITION AND METHOD FOR TREATING NEUROLOGICAL DISORDERS” (priority 2003, published 2007).
Values belong to the compound of their own block, whether it stands above or below them.

Key:
MT-3 = conditions: brain tissue
HDAC = conditions: in words only; literature
mammalian HDAC = conditions: Yoshida et al. 1990
DNA methyltransferase = conditions: after incorporation at a site of methylation
[1] = sterile powder formulation stored at 2-8° C.

Compound: Nc1ncn([C@@H]2O[C@H](CO)[C@@H](O)[C@H]2O)c(=O)n1 [5-azacytidine]
- MT-3 expression after treatment (MT-3): re-expression of MT-3

Compound: O=C(/C=C/c1cccc(C(=O)NO)c1)NO [CBHA, m-carboxy-cinnamic acid bishydroxamic acid]
- concentration at which HDAC is inhibited (HDAC): micromolar concentration or lower

Compound: C/C=C1\NC(=O)[C@H]2CSSCC/C=C/[C@H](CC(=O)N[C@H](C(C)C)C(=O)N2)OC(=O)[C@H](C(C)C)NC1=O [Depsipeptide, depsipeptide]
- concentration at which HDAC is inhibited (HDAC): micromolar concentrations

Compound: CC(/C=C/C(=O)NO)=C\[C@@H](C)C(=O)c1ccc(N(C)C)cc1 [TSA, trichostatin A]
- inhibition of mammalian HDAC (mammalian HDAC): potent inhibitor

- effect on DNA methyltransferase (DNA methyltransferase): irreversible inactivation
- half life in vivo: short half life
- tissue distribution (in vivo): excellent tissue distribution
- time the drug is kept stable [1]: at least 2 years
Compound: Nc1ncn([C@H]2C[C@H](O)[C@@H](CO)O2)c(=O)n1 [decitabine, 5-aza-2′-deoxycytidine]

Compound: depudecin
- concentration at which HDAC is inhibited (HDAC): micromolar concentrations
